Measurements reported in ChEMBL document CHEMBL1201861, “Genomics of Drug Sensitity in Cancer screening data, Wellcome Trust Sanger Institute”.

How the values were obtained:
Experiment in all cases: cells
Format in all cases: functional, cell-based, Homo sapiens
DOK = tested on: DOK;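 further: cell viability assay read-out, values reflect inhibition of cell growth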
Description: SANGER: Inhibition of human DOK cell growth in a cell viability assay.

KYSE-450 = tested on: KYSE-450;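 further: cell growth inhibition measured by a viability assay in human KYSE-450 cells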
Description: SANGER: Inhibition of human KYSE-450 cell growth in a cell viability assay.

8305C = tested on: 8305C
Description: SANGER: Inhibition of human 8305C cell growth in a cell viability assay.

HT-1080 = tested on: HT-1080
Description: SANGER: Inhibition of human HT-1080 cell growth in a cell viability assay.

IGR-1 = tested on: IGR-1;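 further: growth inhibition of human IGR-1 cells, read out with a cell viability assay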
Description: SANGER: Inhibition of human IGR-1 cell growth in a cell viability assay.

NCI-H1651 = tested on: NCI-H1651;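 further: Read-out is a cell viability assay, with IC50 expressing inhibition of NCI-H1651 cell growth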
Description: SANGER: Inhibition of human NCI-H1651 cell growth in a cell viability assay.

5637 = tested on: 5637
Description: SANGER: Inhibition of human 5637 cell growth in a cell viability assay.

MDA-MB-415 = tested on: MDA-MB-415
HSC-3 = tested on: HSC-3
Description: SANGER: Inhibition of human HSC-3 cell growth in a cell viability assay.

NCI-H1437 = tested on: NCI-H1437;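 further: growth inhibition of human NCI-H1437 cells, read out by a cell viability assay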
Description: SANGER: Inhibition of human NCI-H1437 cell growth in a cell viability assay.

HT-29 = tested on: HT-29;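 further: growth inhibition of human HT-29 cells, read out by a cell viability assay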
Description: SANGER: Inhibition of human HT-29 cell growth in a cell viability assay.

OVCAR-5 = tested on: OVCAR-5;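 further: growth inhibition of human OVCAR-5 cells, read out with a cell viability assay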
Description: SANGER: Inhibition of human OVCAR-5 cell growth in a cell viability assay.

SW1710 = tested on: SW1710;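 further: growth inhibition of SW1710 cells, determined with a cell viability assay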
Description: SANGER: Inhibition of human SW1710 cell growth in a cell viability assay.

MHH-ES-1 = tested on: MHH-ES-1;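 further: cell growth inhibition measured by a cell viability assay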
Description: SANGER: Inhibition of human MHH-ES-1 cell growth in a cell viability assay.

LK-2 = tested on: LK-2;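 further: growth inhibition of LK-2 cells, read out with a viability assay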
Description: SANGER: Inhibition of human LK-2 cell growth in a cell viability assay.

SK-MES-1 = tested on: SK-MES-1;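 further: growth inhibition of human SK-MES-1 cells, read out with a cell viability assay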
Description: SANGER: Inhibition of human SK-MES-1 cell growth in a cell viability assay.

SW1463 = tested on: SW1463;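 further: growth inhibition of SW1463 cells, determined with a cell viability assay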
Description: SANGER: Inhibition of human SW1463 cell growth in a cell viability assay.

EFO-21 = tested on: EFO-21;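 further: growth inhibition of EFO-21 cells measured with a viability assay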
Description: SANGER: Inhibition of human EFO-21 cell growth in a cell viability assay.

EW-22 = tested on: EW-22;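 further: growth inhibition of the EW-22 cell line, measured with a cell viability readout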
Description: SANGER: Inhibition of human EW-22 cell growth in a cell viability assay.

VMRC-RCZ = tested on: VMRC-RCZ;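 further: growth inhibition measured with a cell viability assay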
Description: SANGER: Inhibition of human VMRC-RCZ cell growth in a cell viability assay.

SNU-423 = tested on: SNU-423
Description: SANGER: Inhibition of human SNU-423 cell growth in a cell viability assay.

CAL-72 = tested on: CAL-72;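 further: cell viability assay measuring inhibition of proliferation in the CAL-72 cell line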
Description: SANGER: Inhibition of human CAL-72 cell growth in a cell viability assay.

MG-63 = tested on: MG-63;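 further: growth inhibition of human MG-63 cells, read out with a cell viability assay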
Description: SANGER: Inhibition of human MG-63 cell growth in a cell viability assay.

NCI-H727 = tested on: NCI-H727;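 further: growth inhibition of human NCI-H727 cells, read out with a cell viability assay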
Description: SANGER: Inhibition of human NCI-H727 cell growth in a cell viability assay.

RMG-I = tested on: RMG-I;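 further: growth inhibition of human RMG-I cells, read out with a cell viability assay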
Description: SANGER: Inhibition of human RMG-I cell growth in a cell viability assay.

BXPC-3 = tested on: BXPC-3;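 further: growth inhibition of human BxPC-3 cells, read out by a cell viability assay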
Description: SANGER: Inhibition of human BxPC-3 cell growth in a cell viability assay.

D-423MG = tested on: D-423MG
Description: SANGER: Inhibition of human D-423MG cell growth in a cell viability assay.

NCI-H1693 = tested on: NCI-H1693;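 further: growth inhibition of the human cell line, read out with a cell viability assay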
Description: SANGER: Inhibition of human NCI-H1693 cell growth in a cell viability assay.

HGC-27 = tested on: HGC-27;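 further: growth inhibition of human HGC-27 cells, read out in a cell viability assay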
Description: SANGER: Inhibition of human HGC-27 cell growth in a cell viability assay.

SiHa = tested on: SiHa;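 further: Viability-based readout of growth inhibition in SiHa cells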
Description: SANGER: Inhibition of human SiHa cell growth in a cell viability assay.

NCI-H460 = tested on: NCI-H460;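 further: cell viability assay scoring growth inhibition of human NCI-H460 cells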
Description: SANGER: Inhibition of human NCI-H460 cell growth in a cell viability assay.

NCI-H2029 = tested on: NCI-H2029;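 further: Read-out is a viability assay on the cultured cells, and IC50 is the concentration that suppresses cell growth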
Description: SANGER: Inhibition of human NCI-H2029 cell growth in a cell viability assay.

A 172 = tested on: A 172;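 further: growth inhibition of A172 cells, measured with a cell viability readout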
Description: SANGER: Inhibition of human A172 cell growth in a cell viability assay.

BT-549 = tested on: BT-549
Description: SANGER: Inhibition of human BT-549 cell growth in a cell viability assay.

KYSE-180 = tested on: KYSE-180;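 further: growth inhibition of KYSE-180 cells, read out with a cell viability assay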
Description: SANGER: Inhibition of human KYSE-180 cell growth in a cell viability assay.

NCI-H2347 = tested on: NCI-H2347;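 further: growth inhibition of the cell line, read out with a cell viability assay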
Description: SANGER: Inhibition of human NCI-H2347 cell growth in a cell viability assay.

HOS = tested on: HOS;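 further: growth inhibition of human HOS cells, read out with a cell viability assay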
Description: SANGER: Inhibition of human HOS cell growth in a cell viability assay.

YH-13 = tested on: YH-13;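 further: cell viability readout of growth suppression in the human YH-13 cell line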
Description: SANGER: Inhibition of human YH-13 cell growth in a cell viability assay.

YAPC = tested on: YAPC;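 further: growth inhibition of YAPC cells, measured with a cell viability assay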
Description: SANGER: Inhibition of human YAPC cell growth in a cell viability assay.

NCI-H2228 = tested on: NCI-H2228;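 further: growth inhibition of human NCI-H2228 cells, read out by a cell viability assay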
Description: SANGER: Inhibition of human NCI-H2228 cell growth in a cell viability assay.

SBC-5 = tested on: SBC-5;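 further: cell viability assay read-out, IC50 is the concentration that inhibits growth of the cells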
Description: SANGER: Inhibition of human SBC-5 cell growth in a cell viability assay.

MFE-280 = tested on: MFE-280;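 further: growth inhibition of MFE-280 cells, determined with a cell viability readout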
Description: SANGER: Inhibition of human MFE-280 cell growth in a cell viability assay.

DBTRG-05MG = tested on: DBTRG-05MG;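 further: cell viability assay measuring growth inhibition of human DBTRG-05MG cells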
Description: SANGER: Inhibition of human DBTRG-05MG cell growth in a cell viability assay.

EFM-19 = tested on: EFM-19;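 further: growth inhibition of human EFM-19 cells, measured in a cell viability assay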
Description: SANGER: Inhibition of human EFM-19 cell growth in a cell viability assay.

Work on `CO[C@H]1C[C@@H]2CC[C@@H](C)[C@@](O)(O2)C(=O)C(=O)N2CCCC[C@H]2C(=O)O[C@H]([C@H](C)C[C@@H]2CC[C@@H](OC(=O)C(C)(CO)CO)[C@H](OC)C2)CC(=O)[C@H](C)/C=C(\C)[C@@H](O)[C@@H](OC)C(=O)[C@H](C)C[C@H](C)/C=C/C=C/C=C/1C` [TEMSIROLIMUS] yielded an IC50 (DOK; Homo sapiens, DOK) of 0.041 µM, an IC50 (KYSE-450; Homo sapiens, KYSE-450) of over 0.2 µM and an IC50 (8305C; Homo sapiens, 8305C) of over 0.2 µM. It also gave an IC50 (HT-1080; Homo sapiens, HT-1080) of 0.0179 µM, an IC50 (IGR-1; Homo sapiens, IGR-1) of over 0.2 µM and an IC50 (NCI-H1651; Homo sapiens, NCI-H1651) of over 0.2 µM. The IC50 (5637; Homo sapiens) was over 0.2 µM, the IC50 (MDA-MB-415; Homo sapiens, MDA-MB-415) was 0.036 µM and the IC50 (HSC-3; Homo sapiens, HSC-3) was 0.0387 µM. The IC50 (NCI-H1437; Homo sapiens, NCI-H1437) was 0.103 µM, the IC50 (HT-29; Homo sapiens, HT-29) was over 0.2 µM and the IC50 (OVCAR-5; Homo sapiens, OVCAR-5) was 0.124 µM. For the same molecule, the IC50 (SW1710; Homo sapiens, SW1710) was 0.189 µM, the IC50 (MHH-ES-1; Homo sapiens, MHH-ES-1) was 0.0919 µM and the IC50 (LK-2; Homo sapiens, LK-2) was over 0.2 µM. It also gave an IC50 (SK-MES-1; Homo sapiens, SK-MES-1) of over 0.2 µM, an IC50 (SW1463; Homo sapiens, SW1463) of over 0.2 µM and an IC50 (EFO-21; Homo sapiens, EFO-21) of over 0.2 µM. It also gave an IC50 (EW-22; Homo sapiens, EW-22) of over 0.2 µM, an IC50 (VMRC-RCZ; Homo sapiens, VMRC-RCZ) of over 0.2 µM and an IC50 (SNU-423; Homo sapiens, SNU-423) of 0.173 µM. The IC50 (CAL-72; Homo sapiens, CAL-72) was over 0.2 µM, the IC50 (MG-63; Homo sapiens, MG-63) was 0.134 µM and the IC50 (NCI-H727; Homo sapiens, NCI-H727) was over 0.2 µM. For the same molecule, the IC50 (RMG-I; Homo sapiens, RMG-I) was over 0.2 µM, the IC50 (BXPC-3; Homo sapiens, BXPC-3) was over 0.2 µM and the IC50 (D-423MG; Homo sapiens, D-423MG) was over 0.2 µM. The IC50 (NCI-H1693; Homo sapiens, NCI-H1693) was 0.0922 µM, the IC50 (HGC-27; Homo sapiens, HGC-27) was 0.0096 µM and the IC50 (SiHa; Homo sapiens, SiHa) was over 0.2 µM. It also gave an IC50 (NCI-H460; Homo sapiens, NCI-H460) of over 0.2 µM, an IC50 (NCI-H2029; Homo sapiens, NCI-H2029) of over 0.2 µM and an IC50 (A 172; Homo sapiens, A 172) of over 0.2 µM. It also gave an IC50 (BT-549; Homo sapiens, BT-549) of over 0.2 µM, an IC50 (KYSE-180; Homo sapiens, KYSE-180) of over 0.2 µM and an IC50 (NCI-H2347; Homo sapiens, NCI-H2347) of over 0.2 µM. The IC50 (HOS; Homo sapiens, HOS) was 0.145 µM, the IC50 (YH-13; Homo sapiens, YH-13) was 0.0411 µM and the IC50 (YAPC; Homo sapiens, YAPC) was over 0.2 µM. The IC50 (NCI-H2228; Homo sapiens, NCI-H2228) was over 0.2 µM, the IC50 (SBC-5; Homo sapiens, SBC-5) was 0.103 µM and the IC50 (MFE-280; Homo sapiens, MFE-280) was over 0.2 µM. For the same molecule, the IC50 (DBTRG-05MG; Homo sapiens, DBTRG-05MG) was over 0.2 µM and the IC50 (EFM-19; Homo sapiens, EFM-19) was 0.0815 µM.

Molecule `CS(=O)(=O)c1ccc(C(=O)Nc2ccc(Cl)c(-c3ccccn3)c2)c(Cl)c1` [VISMODEGIB] has an IC50 (DOK; Homo sapiens, DOK) of over 10 µM, an IC50 (KYSE-450; Homo sapiens, KYSE-450) of over 10 µM and an IC50 (8305C; Homo sapiens, 8305C) of over 10 µM. It also gave an IC50 (HT-1080; Homo sapiens, HT-1080) of over 10 µM, an IC50 (IGR-1; Homo sapiens, IGR-1) of over 10 µM and an IC50 (NCI-H1651; Homo sapiens, NCI-H1651) of over 10 µM. For the same molecule, the IC50 (5637; Homo sapiens) was over 10 µM, the IC50 (MDA-MB-415; Homo sapiens, MDA-MB-415) was over 10 µM and the IC50 (HSC-3; Homo sapiens, HSC-3) was over 10 µM. For the same molecule, the IC50 (NCI-H1437; Homo sapiens, NCI-H1437) was over 10 µM, the IC50 (HT-29; Homo sapiens, HT-29) was over 10 µM and the IC50 (OVCAR-5; Homo sapiens, OVCAR-5) was over 10 µM. The IC50 (SW1710; Homo sapiens, SW1710) was over 10 µM, the IC50 (MHH-ES-1; Homo sapiens, MHH-ES-1) was over 10 µM and the IC50 (LK-2; Homo sapiens, LK-2) was over 10 µM. The IC50 (SK-MES-1; Homo sapiens, SK-MES-1) was over 10 µM, the IC50 (SW1463; Homo sapiens, SW1463) was over 10 µM and the IC50 (EFO-21; Homo sapiens, EFO-21) was over 10 µM. It also gave an IC50 (EW-22; Homo sapiens, EW-22) of over 10 µM, an IC50 (VMRC-RCZ; Homo sapiens, VMRC-RCZ) of over 10 µM and an IC50 (SNU-423; Homo sapiens, SNU-423) of over 10 µM. It also gave an IC50 (CAL-72; Homo sapiens, CAL-72) of over 10 µM, an IC50 (MG-63; Homo sapiens, MG-63) of over 10 µM and an IC50 (NCI-H727; Homo sapiens, NCI-H727) of over 10 µM. For the same molecule, the IC50 (RMG-I; Homo sapiens, RMG-I) was over 10 µM, the IC50 (BXPC-3; Homo sapiens, BXPC-3) was over 10 µM and the IC50 (D-423MG; Homo sapiens, D-423MG) was over 10 µM. For the same molecule, the IC50 (NCI-H1693; Homo sapiens, NCI-H1693) was over 10 µM, the IC50 (HGC-27; Homo sapiens, HGC-27) was over 10 µM and the IC50 (SiHa; Homo sapiens, SiHa) was over 10 µM. It also gave an IC50 (NCI-H460; Homo sapiens, NCI-H460) of over 10 µM, an IC50 (NCI-H2029; Homo sapiens, NCI-H2029) of over 10 µM and an IC50 (A 172; Homo sapiens, A 172) of over 10 µM. For the same molecule, the IC50 (BT-549; Homo sapiens, BT-549) was over 10 µM, the IC50 (KYSE-180; Homo sapiens, KYSE-180) was over 10 µM and the IC50 (NCI-H2347; Homo sapiens, NCI-H2347) was over 10 µM. It also gave an IC50 (HOS; Homo sapiens, HOS) of over 10 µM, an IC50 (YH-13; Homo sapiens, YH-13) of over 10 µM and an IC50 (YAPC; Homo sapiens, YAPC) of over 10 µM. For the same molecule, the IC50 (NCI-H2228; Homo sapiens, NCI-H2228) was over 10 µM, the IC50 (SBC-5; Homo sapiens, SBC-5) was over 10 µM and the IC50 (MFE-280; Homo sapiens, MFE-280) was over 10 µM. The IC50 (DBTRG-05MG; Homo sapiens, DBTRG-05MG) was over 10 µM and the IC50 (EFM-19; Homo sapiens, EFM-19) was over 10 µM.

CISPLATIN gave an IC50 (DOK; dok) of 12.5 µM, an IC50 (KYSE-450; kyse-450) of 72.8 µM and an IC50 (8305C; 8305c) of 61.6 µM. For the same molecule, the IC50 (HT-1080; ht-1080) was 23.9 µM, the IC50 (IGR-1; igr-1) was 575 µM and the IC50 (NCI-H1651; nci-h1651) was 7.06 µM. It also gave an IC50 5637 of 4.52 µM, an IC50 (MDA-MB-415; mda-mb-415) of 48.4 µM and an IC50 (HSC-3; hsc-3) of 21.9 µM. It also gave an IC50 (NCI-H1437; nci-h1437) of 84.4 µM, an IC50 (HT-29; ht-29) of 610 µM and an IC50 (OVCAR-5; ovcar-5) of 4.02 µM. For the same molecule, the IC50 (SW1710; sw1710) was 44.4 µM, the IC50 (MHH-ES-1; mhh-es-1) was 55 µM and the IC50 (LK-2; lk-2) was 44.3 µM. It also gave an IC50 (SK-MES-1; sk-mes-1) of 129 µM, an IC50 (SW1463; sw1463) of 189 µM and an IC50 (EFO-21; efo-21) of 33.7 µM. The IC50 (EW-22; ew-22) was 2.08 µM, the IC50 (VMRC-RCZ; vmrc-rcz) was 298 µM and the IC50 (SNU-423; snu-423) was 111 µM. For the same molecule, the IC50 (CAL-72; cal-72) was 23.4 µM, the IC50 (MG-63; mg-63) was 100 µM and the IC50 (NCI-H727; nci-h727) was 691 µM. For the same molecule, the IC50 (RMG-I; rmg-i) was 1150 µM, the IC50 (BXPC-3; bxpc-3) was 22.3 µM and the IC50 (D-423MG; d-423mg) was 13.9 µM. For the same molecule, the IC50 (NCI-H1693; nci-h1693) was 122 µM, the IC50 (HGC-27; hgc-27) was 6.65 µM and the IC50 (SiHa; siha) was 17 µM. For the same molecule, the IC50 (NCI-H460; nci-h460) was 345 µM, the IC50 (NCI-H2029; nci-h2029) was 961 µM and the IC50 (A 172; a 172) was 78.9 µM. The IC50 (BT-549; bt-549) was 14.6 µM, the IC50 (KYSE-180; kyse-180) was 5.82 µM and the IC50 (NCI-H2347; nci-h2347) was 218 µM. For the same molecule, the IC50 (HOS; hos) was 2.56 µM, the IC50 (YH-13; yh-13) was 12.1 µM and the IC50 (YAPC; yapc) was 1160 µM. The IC50 (NCI-H2228; nci-h2228) was 8.25 µM, the IC50 (SBC-5; sbc-5) was 70.1 µM and the IC50 (MFE-280; mfe-280) was 626 µM. For the same molecule, the IC50 (DBTRG-05MG; dbtrg-05mg) was 15.9 µM and the IC50 (EFM-19; efm-19) was 245 µM.
